# Results published in patent US6703365B2, “Glucagon-like insulinotropic peptides, compositions and methods” (Eli Lilly and Company, priority 1993, dated 2004).
# Several values for one entry are separate records, joined by “and”; a condition that tells them apart may be missing. Equal entries are not always repeated. Where two headings read alike, the source gives them in different places.
# Tests used:
# [1] = stored at 4° C.; cited from earlier work
# [2] = Zinc complexation/precipitation of GLP-1 molecules, protein content of supernatant by 280 nm absorbance (Example 1); type: physicochemical; details: 0.1M HEPES pH 7.4, about 0.1 mg/mL, 22° C., about 18 hours
# Experimental: Individual aliquots of 5 different GLP-1 molecules were prepared by well-known, solid phase peptide synthesis and were lyophilized in small vials. Portions of 0.1M HEPES (N-[2-hydroxyethyl]piperazine-N′-[2-ethanesulfonic acid]) buffers at pH 7.4 containing various levels of zinc chloride were added to the aliquots to obtain a protein concentration of about 0.1 mg/mL. The samples were mixed and stored at ambient temperature (22° C.) for about 18 hours. The mixtures were then centrifuged (Fisher Model 235C micro-centrifuge) for 5 minutes. The clear supernatants were pipetted from the tubes. The protein content of the supernatants was estimated by measuring their absorbance at 280 nm in a spectrophotometer (Gilford 260). The theoretical absorbance value for a 0.1 mg/mL solution of the GLP-1 molecules at this wavelength in the 1 cm cuvettes is 0.207.
# [3] = Zinc precipitation of GLP-1 (7-36)NH2, 280 nm absorbance and zinc by atomic absorption in supernatant and redissolved precipitate (Example 2); type: physicochemical
# Experimental: 5 mg of GLP-1 (7-36)NH2 was completely dissolved in 2.5 ML of pH 7.4, zinc-free 0.1M HEPES buffer. An additional 2.5 mL of pH 7.4, 0.1M HEPES buffer containing 0.6 mM zinc chloride was quickly added. The approximate molar ratio of zinc to GLP-1 (7-36)NH2 in this sample is 1 to 1. The solution immediately became cloudy and precipitation soon formed. The mixture was stored at ambient temperature (22° C.) for 18 hours.
# The precipitate became firmly attached to the bottom of the glass vial. The supernatant was completely decanted by pipette. The precipitate was then completely dissolved in 5.0 mL of 0.1N hydrochloric acid. The absorbance at 280 nm was determined for both the supernatant and redissolved precipitate solutions. The zinc levels in these solutions were quantitated by atomic absorption spectrophotometry.
# [4] = intravenous infusion, cited from earlier work
# [5] = Zn/GLP-1 molecule molar ratio 0, theoretical absorbance 0.207
# [6] = Zn/GLP-1 molecule molar ratio 0.3
# [7] = Zn/GLP-1 molecule molar ratio 0.5
# [8] = Zn/GLP-1 molecule molar ratio 0.7
# [9] = Zn/GLP-1 molecule molar ratio 1.0
# [10] = Zn/GLP-1 molecule molar ratio 3.0
# [11] = Patients With Maturity Onset Diabetes
Substance,"280 nm Absorbance of supernatant [2, 5]","280 nm Absorbance of supernatant [2, 6]","280 nm Absorbance of supernatant [2, 7]","280 nm Absorbance of supernatant [2, 8]","280 nm Absorbance of supernatant [2, 9]","280 nm Absorbance of supernatant [2, 10]",further results
GLP-1 (7-37),–,–,–,–,–,–,Time after sample preparation at which by-products were found [1]: eleven
Gly^8-GLP-1(7-36)NH2 [Gly^8-GLP-1 (7-36)NH2],0.136,0.079,0.070,0.058,0.057,0.044,–
Gly^8-Gln^21-GLP-1(7-37)OH [Gly^8-Gln^21 GLP-1 (7-37)OH],0.167,0.113,0.082,0.069,0.065,0.055,–
His^7-Ala-Glu-Gly^10-Thr-Phe-Thr-Ser-Asp15-Val-Ser-Ser-Tyr-Leu^20-Glu-Gly-Gln-Ala-Ala^25-Lys-Glu-Phe-Ile-Ala^30-Trp-Leu-Val-Lys-Gly^35-Arg-NH2 [GLP-1 (7-36)NH2],0.172,0.099,0.057,0.035,0.039,0.048,"Zinc Concentration in Parts per Million ([3]; Redissolved Precipitate (5 ml)): 13.3 Parts per Million; 280 nm Absorbance ([3]; Redissolved Precipitate (5 ml) in 0.1N hydrochloric acid): 1.932; Zinc Concentration in Parts per Million ([3]; Supernatant (5 ml)): 9.02 Parts per Million; 280 nm Absorbance ([3]; Supernatant (5 ml), zinc to peptide about 1 to 1, pH 7.4 HEPES, 22° C., 18 hours): 0.118; zinc concentration of the redissolved precipitate solution ([3]; equivalent of 13.3 parts per million): 203 µM; GLP-1 (7-36)NH2 concentration of the redissolved precipitate ([3]; from 280 nm absorbance 1.932): 0.933 mg/ml and 283 μM; molar ratio of zinc to GLP-1 (7-36)NH2 in the precipitate ([3]; ratio to 1): 0.717; precipitation from the solution when zinc-containing HEPES solution was added ([3]; zinc to peptide about 1 to 1, pH 7.4): most of the GLP-1 (7-36)NH2 precipitated from the solution; Meal glycemia ([4]; Normal Subjects, twice normal serum concentrations): Unchanged; Endogenous insulin secretion in response to a meal ([4]; Normal Subjects): Unchanged; Free fatty acids ([4]; Normal Subjects): Reduced (3); Endogenous insulin secretion in response to a meal [4, 11]: Increased; Fasting glucagon [4, 11]: Reduced; Fasting glycemia [4, 11]: Reduced; Free fatty acids [4, 11]: Reduced (2); Meal glycemia [4, 11]: Reduced; Post-prandial glucagon [4, 11]: Reduced"
Val^8-GLP-1(7-37) OH [Val^8-GLP-1 (7-37)OH],0.187,0.191,0.184,0.180,0.173,0.110,–
α-methly-Ala^8-GLP-1(7-36)NH2 [α-methyl-Ala^8-GLP-1 (7-36)NH2],0.163,0.134,0.098,0.079,0.076,0.055,–
